Measurements reported in US7842683B2, “Neurotherapeutic compositions and method” (Revaax Pharmaceuticals, LLC, priority 1999, dated 2010).

How the values were obtained:
golden hamsters = experiment: Seed finding model of anxiety; format: in vivo, Syrian golden hamsters (Mesocricetus auratus)
Excerpt: Clavulanic acid (CLAV) is structurally similar to the beta-lactam antibiotics. A most robust and simple bioassay for screening beta-lactams for CNS activity is the golden hamster seed finding model of anxiety. Briefly, hamsters are deprived of food overnight. The following day they are exposed to the additional stress of being taken from their home cage and placed in a novel environment for a few minutes. This manipulation stimulates the release of the stress hormone cortisol (FIG. 37). During their absence from the home cage, sunflower seeds are hidden under the bedding in one of the corners. When returned to the home cage, hamsters routinely scramble along the walls for 1-2 min before settling down, locating and eating the seeds. However, animals treated with the benzodiazepine anxiolytic chlordiazepoxide find seeds in less than 10 sec.
Male, Syrian golden hamsters (Mesocricetus auratus) (120-130 g) obtained from Harlan Sprague-Dawley Laboratories (Indianapolis, Ind.) were housed individually in Plexiglas cages (24 cm×24 cm×20 cm), maintained on a reverse light:dark cycle (14L:10D; lights on at 19:00 hr) and provided food and water ad libitum. A range of concentrations of CLAV (saline vehicle, 0.1, 1.0, 10, 100 1,000 ng/kg) were tested in six groups of hamsters (4-8/group)(FIG. 25). All tests were conducted during the dark phase of the circadian cycle under dim red illumination. Prior to testing all animals were fasted for 20-24 hrs. Ninety min after intraperitoneal (IP) injection of drug, animals were taken from their home cage and placed into a holding cage for 2 min. During their absence, six sunflower seeds were buried under the bedding in one corner of their home cage. Animals were placed back into their home cage randomly facing any one of the empty corners and timed for their latency to find the seeds in a five min observation period. Latency times were analyzed with a one-way ANOVA followed by Scheffe's post hoc tests. Assumption of equal variances was tested (Hartley's F-max=2.1 p>0.05)
It was hypothesized that CLAV functioned as an anxiolytic in the seed finding assay by blocking NAALADase activity in the brain. If this notion were true then it would be predicted that drugs known to block NAALADase should also enhance seed finding. To this end, animals were treated with N-acetyl-beta-aspartyl-glutamic acid (beta-NAAG), a competitive inhibitor of NAALADase (Serval et al., 1992) and tested in the seed finding model of anxiety. The study was similar to that outlined in Section I with one notable exception. […] Beta-NAAG (FW 304) was given in a dose of 3 ng in a volume of 1 μl saline ICV. The average adult hamster brain weights ca. 1.2 g of which 22% is extracellular fluid. The estimated beta-NAAG concentration was 11 ng/ml or 36 nM.
Two groups of six animals each were fasted overnight as previously described and tested the following day. One group was treated with beta-NAAG and the other saline vehicle and one hr later timed for latency to find the hidden sunflower seeds. A Student t-test for unpaired data was used for statistical comparisons.

[1] = system: hamsters and other test species; experiment: Animal tests: effective dose for neuroactivity; format: in vivo; conditions: for threshold effective dose (administered parenterally): parenteral
Method: Animal tests indicate a threshold effective dose of moxalactam (administered parenterally) to be about 50 μg/kg of body weight. Based on animal test data and on the known distribution of parenterally administered moxalactam between the brain and other body tissues, that the effective minimum neurogenic protease inhibiting, concentration of moxalactam in the brain is about 30 nM. […] For parenterally administered moxalactam the minimum effective dose in hamsters and other test species is about 50 micrograms per kg of body weight, more or less. The use of moxalactam in an oral dosage form, preferably modified or derivatized in the form of an active ester, is estimated to range from about 2.5 to about 50 mg per dose, much less than the dose of moxalactam necessary to provide therapeutically effective antibiotic concentration. The effective oral dose of clavulanate is expected to be about 0.1 to about 10 mgs per dose.

Compound | change in seed finding time (golden hamsters; dose not given) | threshold effective dose (administered parenterally) ([1]; listed as Moxalactam) | threshold effective dose (administered parenterally) ([1]; listed as moxalactam) | latency to find the sunflower seeds vs vehicle (golden hamsters; 1 ng/kg IP, 90 min) | dose with maximal efficacy in the seed finding test (golden hamsters; IP) [ng/kg body weight] | latency to find the sunflower seeds (golden hamsters; doses of 10 ng and above (up to 1,000 ng/kg) IP, 90 min) | effective i.p. dose ([1]; i.p.) | i.p. doses with psychotropic effects (antianxiety, antiaggression, cognition enhancement) ([1]; i.p.)
CO[C@@]1(NC(=O)C(C(=O)O)c2ccc(O)cc2)C(=O)N2C(C(=O)O)=C(CSc3nnnn3C)CO[C@@H]21 (stereo partly drawn) [Mox, 7-β-[2-carboxy-2-(4-hydroxyphenyl)acetamido]-7α-methoxy-3-[[(1-methyl-1H-tetrazol-5-yl)thio]methyl]-1-oxa-1-dethia-3-cephem-4-carboxylic acid] | reduction in seed finding time from minutes to seconds | ≥ 50 μg/kg of body weight | about 50 μg/kg of body weight |  |  |  |  | 
O=C(O)[C@H]1/C(=C/CO)O[C@@H]2CC(=O)N21 [CLAV, Clavulanic acid] |  |  |  | not significantly different | 10 | less than 8.0 sec | less than 1 microgram/kg | less than 1 μg/kg
